The supplement of paper PMC13380429
± gives the standard deviation of the averaged measurements.

How the values were obtained:
Conditions in all cases: 72 h
Vero E6 [1] = assay: drug sensitivity score (DSS) for viability; higher = more toxic; extreme values may be limits of the assay
Caco-2 [2] = assay: as above
U2OS [3] = assay: as above
HepG2 [4] = assay: as above
Calu-3 [5] = assay: as above
Vero E6 [6] = assay: cell viability relative to DMSO; higher = less toxic
Caco-2 [7] = assay: as above
U2OS [8] = assay: as above
HepG2 [9] = assay: as above
Calu-3 [10] = assay: as above
Vero E6 [11] = assay: relative viability EC50 (midpoint between 100% and the lowest measured viability); higher = less toxic
Caco-2 [12] = assay: as above
U2OS [13] = assay: as above
HepG2 [14] = assay: as above
Calu-3 [15] = assay: as above

Row | SMILES | drug sensitivity score (Vero E6 [1]) | drug sensitivity score (Caco-2 [2]) | drug sensitivity score (U2OS [3]) | drug sensitivity score (HepG2 [4]) | drug sensitivity score (Calu-3 [5]) | cell viability (Vero E6 [6]; 1 nM) [%] | cell viability (Vero E6 [6]; 10 nM) [%] | cell viability (Vero E6 [6]; 100 nM) [%] | cell viability (Vero E6 [6]; 1000 nM) [%] | cell viability (Vero E6 [6]; 10000 nM) [%] | cell viability (Caco-2 [7]; 1 nM) [%] | cell viability (Caco-2 [7]; 10 nM) [%] | cell viability (Caco-2 [7]; 100 nM) [%] | cell viability (Caco-2 [7]; 1000 nM) [%] | cell viability (Caco-2 [7]; 10000 nM) [%] | cell viability (U2OS [8]; 1 nM) [%] | cell viability (U2OS [8]; 10 nM) [%] | cell viability (U2OS [8]; 100 nM) [%] | cell viability (U2OS [8]; 1000 nM) [%] | cell viability (U2OS [8]; 10000 nM) [%] | cell viability (HepG2 [9]; 1 nM) [%] | cell viability (HepG2 [9]; 10 nM) [%] | cell viability (HepG2 [9]; 100 nM) [%] | cell viability (HepG2 [9]; 1000 nM) [%] | cell viability (HepG2 [9]; 10000 nM) [%] | cell viability (Calu-3 [10]; 1 nM) [%] | cell viability (Calu-3 [10]; 10 nM) [%] | cell viability (Calu-3 [10]; 100 nM) [%] | cell viability (Calu-3 [10]; 1000 nM) [%] | cell viability (Calu-3 [10]; 10000 nM) [%] | relative viability EC50 (Vero E6 [11]) [µM] | relative viability EC50 (Caco-2 [12]) [µM] | relative viability EC50 (U2OS [13]) [µM] | relative viability EC50 (HepG2 [14]) [µM] | relative viability EC50 (Calu-3 [15]) [µM]
1 | C[C@@H](C(=O)O)c1ccc(-c2ccccc2)c(F)c1 (racemic) [flurbiprofen-(+/-)] | 0 | 0 | 0 | 0 | 0.0333 ± 0.058 | 100 ± 1.8 | 100 ± 1.6 | 97.15 ± 0.92 | 95.7 ± 6.5 | 97.2 ± 1.3 | 98.7 ± 8 | 95.2 ± 2.5 | 95.5 ± 4 | 96 ± 3.3 | 96 ± 8.2 | 101.1 ± 1 | 100 ± 7.2 | 99.4 ± 2.7 | 99 ± 2.2 | 96.4 ± 5 | 94.95 ± 0.21 | 101 ± 9.9 | 94.9 ± 4 | 101 ± 2.8 | 100 ± 1.4 | 92.6 ± 3.4 | 98.7 ± 5.3 | 93.3 ± 9.1 | 96.3 ± 3.1 | 98.3 ± 12 | > 10 | > 10 | > 10 | > 10 | > 10
2 | O=C(O)Cc1cccnc1C(=O)O [homoquinolinic-acid] | 0 | 0 | 0 | 0 | 0 | 105 | 106 | 102 | 103 | 94 | 99.5 | 104 | 101 | 96.3 | 105 | 97.4 | 100 | 100 | 99.6 | 99.7 | 104 | 93.8 | 95.3 | 94 | 93.9 | 92.7 | 89.2 | 97.4 | 95.6 | 111 | > 10 | > 10 | > 10 | > 10 | > 10
3 | N#C/C(=C\c1cccn1S(=O)(=O)c1cccc([N+](=O)[O-])c1)S(=O)(=O)c1ccc(F)cc1 [AMZ30] | 0 | 0.4 | 0 | 0 | 0 | 98.6 | 97.6 | 96.4 | 94.9 | 93.3 | 104 | 99 | 95.3 | 96.3 | 84.8 | 102 | 101 | 96.8 | 96.2 | 94.1 | 95.8 | 105 | 119 | 93.7 | 103 | 90.5 | 98 | 104 | 105 | 108 | > 10 | > 10 | > 10 | > 10 | > 10
